Assay results as given in article PMC12137546, “Development of a microarray based telomerase binding assay reveals unusual binding of a cytochalasin derivative” (Scientific Reports, 2025).
pEC50, pKd: −log10 of the molar value.

Experiments:
[1] = target: T1, telomerase reverse transcriptase (TERT) (Homo sapiens, UniProt O14746); experiment: microscale thermophoresis; also microarray displacement of Cy5 primer cocktail (EC50 […]) and TRAP inhibition in cell lysate; format: binding; set-up: recombinant His-tagged full-length human TERT (pET28aTERT, E. coli, urea/N-lauroylsarcosine solubilized, Ni-IMAC)
[2] = target: T1, telomerase reverse transcriptase (TERT); experiment: microarray displacement of Cy5 primer cocktail from spotted TERT and lysates; TRAP inhibition in lysate at […]; format: binding; set-up: recombinant His-tagged full-length human TERT (pET28aTERT, E. coli) and cell lysates

T1 sequence (O14746 whole entry): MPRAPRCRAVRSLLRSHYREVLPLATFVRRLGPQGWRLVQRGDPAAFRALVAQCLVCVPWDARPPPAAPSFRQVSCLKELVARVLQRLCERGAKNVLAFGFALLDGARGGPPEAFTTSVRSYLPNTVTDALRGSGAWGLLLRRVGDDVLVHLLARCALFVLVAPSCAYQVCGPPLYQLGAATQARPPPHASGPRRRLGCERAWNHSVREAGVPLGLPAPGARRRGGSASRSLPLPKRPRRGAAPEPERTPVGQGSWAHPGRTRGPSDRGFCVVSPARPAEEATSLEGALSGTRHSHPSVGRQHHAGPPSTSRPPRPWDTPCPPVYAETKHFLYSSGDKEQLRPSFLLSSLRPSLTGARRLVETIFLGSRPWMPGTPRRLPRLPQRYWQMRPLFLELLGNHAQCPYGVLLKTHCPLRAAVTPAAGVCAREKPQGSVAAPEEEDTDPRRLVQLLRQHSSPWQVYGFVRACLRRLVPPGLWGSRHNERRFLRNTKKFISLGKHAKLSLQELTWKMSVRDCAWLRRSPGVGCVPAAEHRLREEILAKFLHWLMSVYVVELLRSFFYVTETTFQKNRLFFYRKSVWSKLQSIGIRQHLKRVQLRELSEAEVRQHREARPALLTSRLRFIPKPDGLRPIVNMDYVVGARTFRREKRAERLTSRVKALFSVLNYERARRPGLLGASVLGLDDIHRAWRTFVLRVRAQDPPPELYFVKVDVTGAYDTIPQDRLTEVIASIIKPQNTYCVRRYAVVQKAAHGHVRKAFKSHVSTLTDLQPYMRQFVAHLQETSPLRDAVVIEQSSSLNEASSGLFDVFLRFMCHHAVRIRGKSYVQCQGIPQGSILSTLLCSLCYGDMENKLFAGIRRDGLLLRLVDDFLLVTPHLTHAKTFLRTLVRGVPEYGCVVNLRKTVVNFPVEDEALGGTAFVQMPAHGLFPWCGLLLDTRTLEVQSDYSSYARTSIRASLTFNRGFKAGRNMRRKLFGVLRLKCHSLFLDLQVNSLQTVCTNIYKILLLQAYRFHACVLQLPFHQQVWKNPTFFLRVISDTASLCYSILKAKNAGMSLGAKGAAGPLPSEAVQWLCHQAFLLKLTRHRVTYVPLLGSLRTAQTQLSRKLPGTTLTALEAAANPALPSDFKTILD

Structure (SMILES) | pKd [1] | pEC50 [2]
O=C(O[C@@H]1Cc2c(O)cc(O)cc2O[C@@H]1c1cc(O)c(O)c(O)c1)c1cc(O)c(O)c(O)c1 [EGCG, epigallocatechin-3-gallate] | ~4.59 | –
C=C1[C@@H](C)C2[C@H](Cc3ccc(I)cc3)NC(=O)[C@@]23C(/C=C/C[C@H](C)C[C@@](C)(O)/C=C/[C@H]3OC(C)=O)[C@@H]1O (some centres unmarked) [compound 7, 4’-iodo cytochalasin H] | – | 5.36 to 5.56
